From patent US9303016B2, “Derivatives of aza adamantane and uses thereof” (CONNEXIOS LIFE SCIENCES PVT. LTD., priority 2011, dated 2016)

Molecular target: T1, human full length HSD11β1 (Homo sapiens, UniProt P28845)
T1 construct: transient expression of human full length HSD11β1 expression vector; host or cells: CHO cells, transient transfection
Test: In Vitro HSD11β1 Inhibition Assay
Format: cell-based
Conditions: CHO cells transiently expressing human HSD11β1; 200 nM cortisone+500 uM NADPH overnight; cortisone to cortisol by LC/MS-MS; read-out: 11βHSD1 (IC50)
Protocol: In Vitro HSD11β1 Inhibition Assay:
CHO cells were maintained in Dulbecco's modified Eagle's medium/nutrient mixture F-12 containing 5% fetal bovine serum (v/v) and 2 mM glutamine. Cells were cultured at 37° C. with 5% CO2. For transient expression of human full length HSD11β1 expression vector (OriGene Technologies), cells were seeded at a density of 2×10^5 cells/well in a 6-well plate. Transfection was done using Turbofectin8 reagent (OriGene Technologies), according to the protocol provided with the reagent. After 24 hours post-transfection, cells were trypsinized and pooled together before they were re-seeding to 96-well plate at a density of 40000 cells/well. 24 hours after re-seeding, cells were incubated with 200 nM cortisone+500 uM NADPH (or along with small molecule inhibitors) overnight. The enzymatic activity or inhibition of enzyme activity was measured by estimating the conversion of cortisone to cortisol by LC/MS-MS method. The IC50 in nM was calculated from a 8 point log scale of concentration versus inhibition.

T1 sequence (P28845 whole entry): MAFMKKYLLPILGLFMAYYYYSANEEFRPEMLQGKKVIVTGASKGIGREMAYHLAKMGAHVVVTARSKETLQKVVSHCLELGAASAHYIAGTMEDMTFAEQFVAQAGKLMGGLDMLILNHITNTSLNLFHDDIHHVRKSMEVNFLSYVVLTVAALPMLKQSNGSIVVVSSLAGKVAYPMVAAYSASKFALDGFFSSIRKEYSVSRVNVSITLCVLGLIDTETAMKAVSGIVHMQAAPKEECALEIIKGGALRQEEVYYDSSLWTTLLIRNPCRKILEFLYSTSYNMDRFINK

Row | SMILES | IC50 [nM]
1 | CC(CC(=O)N1C2CC3CC1CC(O)(C3)C2)c1c[nH]c2cccc(-c3ccsc3)c12 (centres unmarked) [Compound 187, 1-(5-hydroxy-2-azatricyclo[3.3.1.1^3,7]dec-2-yl)-3-[4-(thiophen-3-yl)-1H-indol-3-yl]butan-1-one] | 100 to 150
2 | O=C(CCn1nnc2ccccc21)N1C2CC3CC1CC(O)(C3)C2 [Example 16, 3-(1H-benzotriazol-1-yl)-1-(5-hydroxy-2-azatricyclo[3.3.1.1^3,7]dec-2-yl)propan-1-one] | > 250
3 | Cc1cccc2c1c(C(C)CC(=O)N1C3CC4CC1CC(O)(C4)C3)cn2C1CC1 (centres unmarked) [Compound 205, 3-(1-cyclopropyl-4-methyl-1H-indol-3-yl)-1-(5-hydroxy-2-azatricyclo[3.3.1.1^3,7]dec-2-yl)butan-1-one] | > 250
4 | O=C(CCc1c[nH]c2ccccc12)N1C2CC3CC(C2)CC1C3 [Example 1, 1-(2-azatricyclo[3.3.1.1^3,7]dec-2-yl)-3-(1H-indol-3-yl)propan-1-one] | > 250
5 | Cc1cccc2c1c(C(C)CC(=O)N1C3CC4CC1CC(O)(C4)C3)cn2S(=O)(=O)c1cccc2cccnc12 (centres unmarked) [Compound 216, 1-(5-hydroxy-2-azaadamantan-2-yl)-3-(4-methyl-1-(quinolin-8-ylsulfonyl)-1H-indol-3-yl)butan-1-one] | > 250
6 | CC(CC(=O)N1C2CC3CC1CC(C(=O)O)(C3)C2)c1c[nH]c2cccc(-c3ccc(F)cc3)c12 (centres unmarked) [Example 62, 2-{3-[4-(4-fluorophenyl)-1H-indol-3-yl]butanoyl}-2-azatricyclo[3.3.1.1^3,7]decane-5-carboxylic acid] | > 250
7 | CC(CC(=O)N1C2CC3CC1CC(C(=O)O)(C3)C2)c1c[nH]c2cccc(Br)c12 (centres unmarked) [Example 55, 2-[3-(4-bromo-1H-indol-3-yl)butanoyl]-2-azatricyclo[3.3.1.1^3,7]decane-5-carboxylic acid] | > 250
8 | O=C(CC(c1ccc(F)cc1F)c1c[nH]c2ccccc12)N1C2CC3CC1CC(O)(C3)C2 (centres unmarked) [Compound 96, 3-(2,4-difluorophenyl)-1-(5-hydroxy-2-azatricyclo[3.3.1.1^3,7]dec-2-yl)-3-(1H-indol-3-yl)propan-1-one] | 100 to 150
9 | Cc1cccc2[nH]cc(C(CC(=O)N3C4CC5CC3CC(O)(C5)C4)c3ccccc3)c12 (centres unmarked) [Example 72, 1-(5-hydroxy-2-azatricyclo[3.3.1.1^3,7′]dec-2-yl)-3-(4-methyl-1H-indol-3-yl)-3-phenylpropan-1-one] | > 250
10 | Cc1c(F)ccc2[nH]cc(C(C)CC(=O)N3C4CC5CC3CC(O)(C5)C4)c12 (single isomer, unassigned) [Compound 147, 3-(5-fluoro-4-methyl-1H-indol-3-yl)-1-(5-hydroxy-2-azatricyclo[3.3.1.1^3,7]dec-2-yl)butan-1-one] | 100 to 150
11 | CC(CC(=O)N1C2CC3CC1CC(O)(C3)C2)c1c[nH]c2ccccc12 (centres unmarked) [Example 20, 1-(5-hydroxy-2-azatricyclo[3.3.1.1^3,7]dec-2-yl)-3-(1H-indol-3-yl)butan-1-one] | > 250
12 | CC(CC(=O)N1C2CC3CC1CC(O)(C3)C2)c1c[nH]c2ncc(C3CC3)c(C3CC3)c12 (centres unmarked) [Compound 201, 3-(4,5-dicyclopropyl-1H-pyrrolo[2,3-b]pyridin-3-yl)-1-(5-hydroxy-2-azatricyclo[3.3.1.1^3,7]dec-2-yl)butan-1-one] | > 250
13 | CC(CC(=O)N1C2CC3CC1CC(O)(C3)C2)c1c[nH]c2cccc(-c3cccs3)c12 (centres unmarked) [Compound 153, 1-(5-hydroxy-2-azatricyclo[3.3.1.1^3,7]dec-2-yl)-3-[4-(thiophen-2-yl)-1H-indol-3-yl]butan-1-one] | < 100
14 | CC(CC(=O)N1C2CC3CC1CC(O)(C3)C2)c1c[nH]c2nccc(C3CC3)c12 (centres unmarked) [Compound 132, 3-(4-cyclopropyl-1H-pyrrolo[2,3-b]pyridin-3-yl)-1-(5-hydroxy-2-azatricyclo[3.3.1.1^3,7]dec-2-yl)butan-1-one] | < 100
15 | Cc1ccc2[nH]cc(C(C)CC(=O)N3C4CC5CC3CC(O)(C5)C4)c2c1Cl (single isomer, unassigned) [Compound 174, 3-(4-chloro-5-methyl-1H-indol-3-yl)-1-(5-hydroxy-2-azatricyclo[3.3.1.1^3,7]dec-2-yl)butan-1-one] | > 250
16 | CC(CC(=O)N1C2CC3CC1CC(CC(=O)O)(C3)C2)c1c[nH]c2cccc(C3CC3)c12 (centres unmarked) [Compound 152, {2-[3-(4-cyclopropyl-1H-indol-3-yl)butanoyl]-2-azatricyclo[3.3.1.1^3,7]dec-5-yl}acetic acid] | 100 to 150
17 | CC(CC(=O)N1C2CC3CC1CC(CO)(C3)C2)c1c[nH]c2cccc(Cl)c12 (centres unmarked) [Example 58, 3-(4-chloro-1H-indol-3-yl)-1-[5-(hydroxymethyl)-2-azatricyclo[3.3.1.1^3,7]dec-2-yl]butan-1-one] | < 100
18 | CC(CC(=O)N1C2CC3CC(C2)CC1C3)c1c[nH]c2ccccc12 (centres unmarked) [Example 17, 1-(2-azatricyclo[3.3.1.1^3,7]dec-2-yl)-3-(1H-indol-3-yl)butan-1-one] | 100 to 150

Row | SMILES | IC50 [nM]
19 | CC(CC(=O)N1C2CC3CC1CC(C(N)=O)(C3)C2)c1c[nH]c2cccc(Cl)c12 (centres unmarked) [Example 47, 2-[3-(4-chloro-1H-indol-3-yl)butanoyl]-2-azatricyclo[3.3.1.1^3,7]decane-5-carboxamide] | 150 to 200
20 | O=C(CCc1c[nH]c2ncccc12)N1C2CC3CC(C2)CC1C3 [Example 14, 1-(2-azatricyclo[3.3.1.1^3,7]dec-2-yl)-3-(1H-pyrrolo[2,3-b]pyridin-3-yl)propan-1-one] | 100 to 150
21 | CC(CC(=O)N1C2CC3CC(C2)CC1C3)c1c[nH]c2ncccc12 (centres unmarked) [Compound 85] | < 100
22 | CC(CC(=O)N1C2CC3CC1CC(CC(=O)O)(C3)C2)c1c[nH]c2cccc(-c3ccc(F)o3)c12 (centres unmarked) [Compound 215, 2-(2-(3-(4-(5-fluorofuran-2-yl)-1H-indol-3-yl)butanoyl)-2-azaadamantan-5-yl)acetic acid] | > 250
23 | CC(CC(=O)N1C2CC3CC1CC(Cl)(C3)C2)c1c[nH]c2cccc(F)c12 (centres unmarked) [Example 32, 1-(5-chloro-2-azatricyclo[3.3.1.1^3,7]dec-2-yl)-3-(4-fluoro-1H-indol-3-yl)butan-1-one] | 150 to 200
24 | CC(CC(=O)N1C2CC3CC1CC(F)(C3)C2)c1nc2ccccc2s1 (centres unmarked) [Compound 106, 3-(1,3-benzothiazol-2-yl)-1-(5-fluoro-2-azatricyclo[3.3.1.1^3,7]dec-2-yl)butan-1-one] | 100 to 150
25 | O=C(CC(c1ccccc1)c1c[nH]c2cc(F)ccc12)N1C2CC3CC1CC(O)(C3)C2 (centres unmarked) [Compound 94, 3-(6-fluoro-1H-indol-3-yl)-1-(5-hydroxy-2-azatricyclo[3.3.1.1^3,7]dec-2-yl)-3-phenylpropan-1-one] | < 100
26 | CC(CC(=O)N1C2CC3CC1CC(O)(C3)C2)c1c[nH]c2cccc(C3CC3)c12 (single isomer, unassigned) [Compound 102, 3-(4-cyclopropyl-1H-indol-3-yl)-1-(5-hydroxy-2-azatricyclo[3.3.1.1^3,7]dec-2-yl)butan-1-one] | < 100
27 | Cc1ccc2[nH]cc(C(C)CC(=O)N3C4CC5(C)CC3CC(O)(C4)C5)c2c1Cl (centres unmarked) [Compound 219, 3-(4-chloro-5-methyl-1H-indol-3-yl)-1-(5-hydroxy-7-methyl-2-azaadamantan-2-yl)butan-1-one] | < 100
28 | CC(CC(=O)N1C2CC3CC1CC(O)(C3)C2)c1c[nH]c2ccc(F)cc12 (centres unmarked) [Compound 75, 3-(5-fluoro-1H-indol-3-yl)-1-(5-hydroxy-2-azatricyclo[3.3.1.1^3,7]dec-2-yl)butan-1-one] | 200 to 250
29 | O=C(CCc1nc2ccccc2s1)N1C2CC3CC1CC(O)(C3)C2 [Example 12, 3-(1,3-benzothiazol-2-yl)-1-(5-hydroxy-2-azatricyclo[3.3.1.1^3,7]dec-2-yl)propan-1-one] | > 250
30 | Cn1cc(CCC(=O)N2C3CC4CC2CC(O)(C4)C3)c2c(F)cccc21 [Example 8, 3-(4-fluoro-1-methyl-1H-indol-3-yl)-1-(5-hydroxy-2-azatricyclo[3.3.1.1^3,7]dec-2-yl)propan-1-one] | > 250
31 | Cc1ccnc2[nH]cc(C(C)CC(=O)N3C4CC5CC3CC(O)(C5)C4)c12 (centres unmarked) [Compound 88, 1-(5-hydroxy-2-azatricyclo[3.3.1.1^3,7]dec-2-yl)-3-(4-methyl-1H-pyrrolo[2,3-b]pyridin-3-yl)butan-1-one] | > 250
32 | CC(CC(=O)N1C2CC3CC1CC(O)(C3)C2)c1c[nH]c2cccc(Cl)c12 (single isomer, unassigned) [Example 36, 3-(4-chloro-1H-indol-3-yl)-1-(5-hydroxy-2-azatricyclo[3.3.1.1^3,7]dec-2-yl)butan-1-one] | 200 to 250
33 | Cc1ccc2[nH]cc(C(C)CC(=O)N3C4CC5CC3CC(O)(C5)C4)c2c1 (centres unmarked) [Compound 110, 1-(5-hydroxy-2-azatricyclo[3.3.1.1^3,7]dec-2-yl)-3-(5-methyl-1H-indol-3-yl)butan-1-one] | > 250
34 | Cc1cccc2[nH]cc(C(C)CC(=O)N3C4CC5CC3CC(O)(C5)C4)c12 (single isomer, unassigned) [Example 49, 1-(5-hydroxy-2-azatricyclo[3.3.1.1^3,7]dec-2-yl)-3-(4-methyl-1H-indol-3-yl)butan-1-one] | < 100
35 | CC(CC(=O)N1C2CC3CC1CC(O)(C3)C2)c1c[nH]c2cc(F)ccc12 (centres unmarked) [Compound 79, 3-(6-fluoro-1H-indol-3-yl)-1-(5-hydroxy-2-azatricyclo[3.3.1.1^3,7]dec-2-yl)butan-1-one] | 100 to 150
